Where two headings read alike, the source gives them in different places.
Tests used:
[1] = target: aggregated beta amyloid in AD tissue (Homo sapiens, UniProt P05067); test: Competitive radioligand binding to pathological aggregated beta amyloid in AD tissue (Assay 2), displacement of [^3H]-105; conditions: Aβ-rich AD frontal cortex homogenate, [^3H]-105, Kd 11.0 nM
Protocol: Frozen human brain samples of Alzheimer's disease (AD) were purchased from Analytic Biological Services Inc. The samples were post-mortem tissue from donors with clinical diagnosis of AD and much of the white matter was dissected out of the frontal cortex in order to enrich the tissue preparations for gray matter. Brain homogenates of gray matter enriched frontal cortex were prepared by homogenizing the tissue in ice cold Phosphate Buffered Saline (PBS), pH 7.4 at 80 mg wet weight tissue per 1 ml for 45 seconds at 4° C., on setting 16 of Polytron. The homogenate was further diluted with ice cold PBS to 30 mg wet weight tissue per 1 ml and homogenized for an additional minute as described above. Homogenates were aliquoted in 5 ml/tube and stored at −70° C. until use.
Radioligand [^3H]-105, prepared as described in ACS Med. Chem. Lett., Vol. 2, pages 498-502, was used in this assay.
For Assay 2 unlabeled test compounds were dissolved in DMSO at 10 mM. Dilutions of tests compounds to various concentrations were made in 100% DMSO at 1000× final assay concentration and 0.225 μl aliquots were dispensed into assay plates. Brain homogenates were diluted to 0.5 mg/ml from original 30 mg/ml volume in Assay Buffer, and 200 μl were added to the assay plate for a final concentration of 100 ug wet weight/assay well. [^3H]-105 was prepared at 10× final concentration in Assay Buffer plus 20% DMSO and 25 μl was added to the assay plate for final assay concentration of 3.0 nM. The plates were incubated at 37° C. for 90 minutes. Unbound and bound ligand were separated by filtration of bound onto GF/B filter plates (pre-treated for 30 min with 0.1% PEI) using a Packard Filtermate and washing away unbound with 2.5 mil ice cold 5 mM Tris at pH 7.4. Filter plates were dried for 1 hr at 57° C. and 50 μl Microscint was added to each well of the plate. The plates were counted for ^3H cpm for 1 min per well using PerkinElmer TopCount.

[2] = target: T1, triton-extracted alpha-synuclein from PD Tissue (Homo sapiens, UniProt P37840); test: Alpha-synuclein tissue homogenate binding assay (Assay 1), displacement of [^3H]-1000; conditions: for Selectivity ratio (Assay 2/Assay 1): Aβ Tissue Ki / α-synuclein Tissue Ki; for Ki: read-out: α-synuclein Tissue Ki (Assay 1)
T1 construct: tissue Analytic Biological Services Inc; host or cells: human PD temporal cortex grey matter, Triton X-100 insoluble pellet

[3] = insoluble fraction of PD brain homogenate, [^3H]-1000 3.0 nM, Kd 0.90 nM

aggregated beta amyloid in AD tissue, sequence (P05067 672-711 limits assumed): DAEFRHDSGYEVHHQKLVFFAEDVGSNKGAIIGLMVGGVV

Row | SMILES | Ki [1] | Selectivity ratio (Assay 2/Assay 1) [2] | Ki [2, 3] | Ki [2]
1 | COC[C@H]1CN(c2ncc(/C=C/c3ccc(-c4cnn(CCF)c4)nc3)cn2)CCN1c1ncccn1 [Example 37, (R,E)-5-(2-(6-(1-(2-fluoroethyl)-1H-pyrazol-4-yl)pyridin-3-yl)vinyl)-2-(3-(methoxymethyl)-4-(pyrimidin-2-yl)piperazin-1-yl)pyrimidine] | ≥ 1200 nM | 1935 | 0.62 nM | –
2 | FCCOCCOC[C@H]1CN(c2ncc(/C=C/c3ccc(-c4cnco4)nc3)cn2)CCN1c1ncncn1 [Example 38, (R,E)-5-(5-(2-(2-(3-((2-(2-fluoroethoxy)ethoxy)methyl)-4-(1,3,5-triazin-2-yl)piperazin-1-yl)pyrimidin-5-yl)vinyl)pyridin-2-yl)oxazole] | ≥ 1200 nM | 600 | 2 nM | –
3 | Cc1cn(-c2ccc(/C=C/c3cnc(N4CCN(c5ncccn5)[C@@H](COCCF)C4)nc3)cn2)cn1 [Example 40, (R,E)-2-(3-((2-fluoroethoxy)methyl)-4-(pyrimidin-2-yl)piperazin-1-yl)-5-(2-(6-(4-methyl-1H-imidazol-1-yl)pyridin-3-yl)vinyl)pyrimidine] | ≥ 1200 nM | 2857 | – | 0.42 nM
4 | FCCOC[C@H]1CN(c2ncc(/C=C/c3ccc(-c4cnco4)nc3)cn2)CCN1c1ncncn1 [Example 41, (R,E)-5-(5-(2-(2-(3-((2-fluoroethoxy)methyl)-4-(1,3,5-triazin-2-yl)piperazin-1-yl)pyrimidin-5-yl)vinyl)pyridin-2-yl)oxazole] | ≥ 1200 nM | 1500 | 0.8 nM | –
5 | FCCOC[C@H]1CN(c2ncc(/C=C/c3ccc(-c4cnco4)nc3)cn2)CCN1c1ccncn1 [Example 42, (R,E)-5-(5-(2-(2-(3-((2-fluoroethoxy)methyl)-4-(pyrimidin-4-yl)piperazin-1-yl)pyrimidin-5-yl)vinyl)pyridin-2-yl)oxazole] | ≥ 1200 nM | 1538 | 0.78 nM | –
6 | Cn1cc(-c2ncc(C#Cc3cnc(N4CCN(c5ncncn5)[C@@H](COCCF)C4)nc3)cn2)cn1 [Example 44, (R)-2-(2-((2-fluoroethoxy)methyl)-4-(5-((2-(1-methyl-1H-pyrazol-4-yl)pyrimidin-5-yl)ethynyl)pyrimidin-2-yl)piperazin-1-yl)-1,3,5-triazine] | ≥ 1200 nM | 2105 | 0.57 nM | –
7 | COC[C@H]1CN(c2ncc(C#Cc3ccc(-n4cnnc4)nc3)cn2)CCN1c1cc(F)ncn1 [Example 45, (R)-5-((6-(4H-1,2,4-triazol-4-yl)pyridin-3-yl)ethynyl)-2-(4-(6-fluoropyrimidin-4-yl)-3-(methoxymethyl)piperazin-1-yl)pyrimidine] | ≥ 1200 nM | 589 | 2.04 nM | –
8 | COC[C@H]1CN(c2ncc(C#Cc3cnc(-c4cnn(CCF)c4)nc3)cn2)CCN1c1ncncn1 [Example 46, (R)-2-(4-(5-((2-(1-(2-fluoroethyl)-1H-pyrazol-4-yl)pyrimidin-5-yl)ethynyl)pyrimidin-2-yl)-2-(methoxymethyl)piperazin-1-yl)-1,3,5-triazine] | ≥ 1200 nM | 929 | 1.29 nM | –
9 | Cn1cc(-c2ccc(C#Cc3cnc(N4CCN(c5ncncn5)[C@@H](COCCF)C4)nc3)cn2)cn1 [Example 50, (R)-2-(2-((2-fluoroethoxy)methyl)-4-(5-((6-(1-methyl-1H-pyrazol-4-yl)pyridin-3-yl)ethynyl)pyrimidin-2-yl)piperazin-1-yl)-1,3,5-triazine] | ≥ 1200 nM | 2673 | 0.449 nM | –
10 | Cn1cc(-c2ncc(C#Cc3cnc(N4CCN(c5ncccn5)[C@@H](COCCF)C4)nc3)cn2)cn1 [Example 51, (R)-2-(3-((2-fluoroethoxy)methyl)-4-(pyrimidin-2-yl)piperazin-1-yl)-5-((2-(1-methyl-1H-pyrazol-4-yl)pyrimidin-5-yl)ethynyl)pyrimidine] | ≥ 1200 nM | 654 | 1.83 nM | –
11 | Cn1cc(-c2ncc(C#Cc3cnc(N4CCN(c5ncccn5)[C@@H](COCCOCCF)C4)nc3)cn2)cn1 [Example 52, (R)-2-(3-((2-(2-fluoroethoxy)ethoxy)methyl)-4-(pyrimidin-2-yl)piperazin-1-yl)-5-((2-(1-methyl-1H-pyrazol-4-yl)pyrimidin-5-yl)ethynyl)pyrimidine] | ≥ 1200 nM | 857 | – | 1.4 nM
12 | COC[C@H]1CN(c2cnc(C#Cc3ccc(-n4ccnc4)nc3)c(F)n2)CCN1c1ncccn1 [Example 57, (R)-2-(4-(5-((6-(1H-imidazol-1-yl)pyridin-3-yl)ethynyl)-6-fluoropyrazin-2-yl)-2-(methoxymethyl)piperazin-1-yl)pyrimidine] | 32 nM | 7 | 4.41 nM | –
13 | COC[C@H]1CN(c2ncc(C#Cc3ccc(-n4cnnc4F)nc3)cn2)CCN1c1ncccn1 [Example 59, (R)-5-((6-(3-fluoro-4H-1,2,4-triazol-4-yl)pyridin-3-yl)ethynyl)-2-(3-(methoxymethyl)-4-(pyrimidin-2-yl)piperazin-1-yl)pyrimidine] | ≥ 1200 nM | 237 | 5.06 nM | –
14 | COC[C@H]1CN(c2ncc(C#Cc3ccc(-n4ccnc4)nc3)cn2)CCN1c1nccc(F)n1 [Example 60, (R)-2-(4-(5-((6-(1H-imidazol-1-yl)pyridin-3-yl)ethynyl)pyrimidin-2-yl)-2-(methoxymethyl)piperazin-1-yl)-4-fluoropyrimidine] | ≥ 1200 nM | 538 | 2.23 nM | –
15 | COC[C@H]1CN(c2ncc(C#Cc3ccc(-n4ccnc4)nc3)cn2)CCN1c1ccnc(F)n1 [Example 61, (R)-4-(4-(5-((6-(1H-imidazol-1-yl)pyridin-3-yl)ethynyl)pyrimidin-2-yl)-2-(methoxymethyl)piperazin-1-yl)-2-fluoropyrimidine] | ≥ 1200 nM | 805 | 1.49 nM | –
16 | FCCOC[C@@H]1CN(c2ncc(C#Cc3ccc(-c4cnco4)nc3)cn2)CCN1c1ncncn1 [Example 62, (S)-5-(5-((2-(3-((2-fluoroethoxy)methyl)-4-(1,3,5-triazin-2-yl)piperazin-1-yl)pyrimidin-5-yl)ethynyl)pyridin-2-yl)oxazole] | ≥ 1200 nM | 811 | 1.48 nM | –
17 | OCC(F)COC[C@H]1CN(c2ncc(C#Cc3ccc(-n4ccnc4)nc3)cn2)CCN1c1ncccn1 (stereo partly drawn) [Example 63, 3-(((R)-4-(5-((6-(1H-imidazol-1-yl)pyridin-3-yl)ethynyl)pyrimidin-2-yl)-1-(pyrimidin-2-yl)piperazin-2-yl)methoxy)-2-fluoropropan-1-ol] | ≥ 1200 nM | 1314 | 0.913 nM | –
18 | COC[C@H]1CN(c2ncc(C#Cc3ccc(-c4cnco4)nc3)cn2)CCN1c1ccnc(F)c1 [Example 64, (R)-5-(5-((2-(4-(2-fluoropyridin-4-yl)-3-(methoxymethyl)piperazin-1-yl)pyrimidin-5-yl)ethynyl)pyridin-2-yl)oxazole] | ≥ 1200 nM | 442 | 2.71 nM | –
19 | CNCC1CN(c2cc(F)ncn2)CCN1c1ncc(C#Cc2ccc(-c3cnco3)nc2)cn1 (stereo not drawn) [Example 65, 1-(4-(6-fluoropyrimidin-4-yl)-1-(5-((6-(oxazol-5-yl)pyridin-3-yl)ethynyl)pyrimidin-2-yl)piperazin-2-yl)-N-methylmethanamine] | ≥ 1200 nM | 1093 | 1.1 nM | –
20 | COC[C@H]1CN(c2ncc(C#Cc3ccc(-c4cnco4)nc3)cn2)CCN1c1ncc(OCCF)cn1 [Example 66, (R)-5-(5-((2-(4-(5-(2-fluoroethoxy)pyrimidin-2-yl)-3-(methoxymethyl)piperazin-1-yl)pyrimidin-5-yl)ethynyl)pyridin-2-yl)oxazole] | ≥ 1200 nM | 706 | 1.7 nM | –
21 | OC(CF)COC[C@H]1CN(c2ncc(C#Cc3ccc(-c4cnco4)nc3)cn2)CCN1c1ncncn1 (stereo partly drawn) [Example 67, 1-fluoro-3-(((R)-4-(5-((6-(oxazol-5-yl)pyridin-3-yl)ethynyl)pyrimidin-2-yl)-1-(1,3,5-triazin-2-yl)piperazin-2-yl)methoxy)propan-2-ol] | ≥ 1200 nM | 798 | 1.5 nM | –
22 | COC[C@H]1CN(c2ncc(C#Cc3ccc(N4CC(F)C4)nc3)cn2)CCN1c1ncccn1 [Example 68, (R)-5-((6-(3-fluoroazetidin-1-yl)pyridin-3-yl)ethynyl)-2-(3-(methoxymethyl)-4-(pyrimidin-2-yl)piperazin-1-yl)pyrimidine] | ≥ 1200 nM | 469 | 2.56 nM | –
23 | COC[C@H]1CN(c2ncc(C#Cc3ccc(-n4ccnc4)nc3)cn2)CCN1c1cncc(F)n1 [Example 69, (R)-5-((6-(1H-imidazol-1-yl)pyridin-3-yl)ethynyl)-2-(4-(6-fluoropyrazin-2-yl)-3-(methoxymethyl)piperazin-1-yl)pyrimidine] | ≥ 1200 nM | 183 | 6.57 nM | –
24 | FCCOC[C@H]1CN(c2ncc(C#Cc3ccc(-n4cnnc4)nc3)cn2)CCN1c1ncncn1 [Example 70, (R)-2-(4-(5-((6-(4H-1,2,4-triazol-4-yl)pyridin-3-yl)ethynyl)pyrimidin-2-yl)-2-((2-fluoroethoxy)methyl)piperazin-1-yl)-1,3,5-triazine] | ≥ 1200 nM | 472 | 2.54 nM | –
25 | FCCOC[C@H]1CN(c2ncc(C#Cc3ccc(-n4cnnc4)nc3)cn2)CCN1c1ncccn1 [Example 71, (R)-5-((6-(4H-1,2,4-triazol-4-yl)pyridin-3-yl)ethynyl)-2-(3-((2-fluoroethoxy)methyl)-4-(pyrimidin-2-yl)piperazin-1-yl)pyrimidine] | ≥ 1200 nM | 293 | 4.09 nM | –

— patent publication US20260224758A1, “ALPHA-SYNUCLEIN BINDERS AND METHODS OF USE” (Merck Sharp & Dohme LLC, priority 2023, published 2026)
